Assays:
Ba/F3 ROS1 (CD74) L2086F = assay: Antiproliferation assay; format: cell-based; conditions: Mus musculus, BaF3; Ba/F3 cell line
Description: (§1) Ba/F3 immortalized murine bone marrow–derived pro-B cells were obtained from Creative Biogene (Shirley, NY) and cultured in RPMI supplemented with 10% FBS and IL3 (0.5 ng/mL). Ba/F3 cells expressing ROS1 variants were maintained in RPMI supplemented with 10% FBS and puromycin (0.7 mg/mL). Crizotinib, ceritinib, brigatinib, repotrectinib, and lorlatinib were purchased from MedChem Express. Each compound was dissolved in DMSO and serially diluted in RPMI for cell culture experiments.
(§2) To assess the 72 h effect of drug treatment on cell proliferation, 2000 to 3000 cells were plated in replicates of three in 96-well plates. The plates were placed in an incubator at 37 °C, 5% CO2 for 72 h. Following drug treatments, the cells were incubated with the Alamar Blue Assay reagent (BioRad), 5 μL each well for 4 h at 37 °C and 5% CO2. Luminescence was measured on a multiplate reader and analyzed. […] IC50 values were determined using a nonlinear regression model with a sigmoidal dose response in GraphPad. The data were collected based on triplicate experiments, and presented as mean ± SD.
(§3) cDNA encoding CD74-ROS1 or mutant CD74–ROS1 was cloned into retroviral expression vectors (pLenti), and viruses were generated in HEK293T cells by transfecting with packaging plasmids. The resulting virus was used to infect Ba/F3 cells. After retroviral infection, Ba/F3 cells were selected by incubation with puromycin (0.7 mg/mL) for 2 weeks. For Ba/F3 cells infected by the CD74–ROS1 variants, IL3 was withdrawn from the culture medium at least 2 weeks before the experiments.

[1] = system: Ba/F3 ROS1 (CD74) S1986F-G2032R; assay: Antiproliferation assay; format: cell-based; conditions: Mus musculus, BaF3; Ba/F3 cell line
Description: as §1, §2, §3

Ba/F3 ROS1 (CD74) G2032R = assay: Antiproliferation assay; format: cell-based; conditions: Mus musculus, BaF3; Ba/F3 cell line
Description: as §1, §2, §3

[2] = system: Ba/F3 ROS1 (CD74) G2032R-L2086F; assay: Antiproliferation assay; format: cell-based; conditions: Mus musculus, BaF3; Ba/F3 cell line
Description: as §1, §2, §3

[3] = system: Ba/F3 ROS1 (CD74) S1986F-G2032R-L2086F; assay: Antiproliferation assay; format: cell-based; conditions: Mus musculus, BaF3; Ba/F3 cell line
Description: as §1, §2, §3

[4] = system: Ba/F3 ROS1 (CD74) S1986F-L2086F; assay: Antiproliferation assay; format: cell-based; conditions: Mus musculus, BaF3; Ba/F3 cell line
Description: as §1, §2, §3

ROS1 = ROS1 degradation in Ba/F3 cells (WES immunoblotting); format: cell-based; conditions: maximal degradation of ROS1 in Ba/F3 cells
Procedure, shortened: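 ROS1 and phospho-ROS1 (Tyr2274/2334) in Ba/F3 lysates quantified by capillary immunoassay (WES) with chemiluminescent detection, duplicate experiments. Levels expressed as AUC of the chemiluminescence peak.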

INSRR = INSRR (Homo sapiens, UniProt P14616); assay: Kinase assay; format: biochemical; conditions: average of duplicate measurements
RET = RET (Homo sapiens, UniProt P07949); assay: Kinase assay; format: biochemical; conditions: average of duplicate measurements
[5] = system: Ba/F3 CD74-ROS1 WT xenograft tumors; assay: Mouse efficacy study, Ba/F3 CD74-ROS1 xenograft; format: in vivo; conditions: NOD/SCID mice
Description: (§4) All the procedures related to animal handling, care, and treatment in this study were performed according to guidelines approved by the Institutional Animal Care and Use Committee (IACUC) of Xavier University of Louisiana following the guidance of the AAALAC. Ba/F3-ROS1 and Ba/F3-ROS1-G2032R cells were maintained in RPMI 1640 medium supplemented with 10% fetal bovine serum. The cells growing in an exponential growth phase were harvested and counted for tumor inoculation. Female NOD/SCID mice 6–8 weeks of age were allowed to adapt to laboratory conditions for 10 days prior to dosing and were allowed food and water ad libitum. Each mouse was inoculated subcutaneously in the right flank with Ba/F3 CD74-ROS1 or Ba/F3 SL34A2-ROS1 G2032R cells (1 × 10^6) in 0.2 mL of PBS mixed with Matrigel (50:50) for tumor development.

[6] = system: Ba/F3 CD74-ROS1 non mutant; assay: Antiproliferation assay (Alamar Blue, 72 h); format: cell-based, mouse; conditions: Mus musculus, BaF3, 72 h, Ba/F3 cells, cell growth inhibition
[7] = system: Ba/F3 SLC34A2-ROS1 G2032R xenograft tumors; assay: Mouse efficacy study, Ba/F3 SLC34A2-ROS1 G2032R xenograft; format: in vivo; conditions: NOD/SCID mice
Description: as §4

NUAK1 = NUAK1 (Homo sapiens, UniProt O60285); assay: Kinase assay; format: biochemical; conditions: average of duplicate measurements
[8] = system: Ba/F3 ROS1 (SLC34A2) G2032R-F2075C; assay: Antiproliferation assay; format: cell-based; conditions: Mus musculus, BaF3; Ba/F3 cell line
Description: as §1, §2

[9] = system: Ba/F3 ROS1 (SLC34A2) F2075C-G1837E; assay: Antiproliferation assay; format: cell-based; conditions: Mus musculus, BaF3; Ba/F3 cell line
Description: as §1, §2

[10] = system: Ba/F3 ROS1 (SLC34A2) G2032R-D2113G; assay: Antiproliferation assay; format: cell-based; conditions: Mus musculus, BaF3; Ba/F3 cell line
Description: as §1, §2

Chain of NUAK1 (O60285 whole entry, species assumed): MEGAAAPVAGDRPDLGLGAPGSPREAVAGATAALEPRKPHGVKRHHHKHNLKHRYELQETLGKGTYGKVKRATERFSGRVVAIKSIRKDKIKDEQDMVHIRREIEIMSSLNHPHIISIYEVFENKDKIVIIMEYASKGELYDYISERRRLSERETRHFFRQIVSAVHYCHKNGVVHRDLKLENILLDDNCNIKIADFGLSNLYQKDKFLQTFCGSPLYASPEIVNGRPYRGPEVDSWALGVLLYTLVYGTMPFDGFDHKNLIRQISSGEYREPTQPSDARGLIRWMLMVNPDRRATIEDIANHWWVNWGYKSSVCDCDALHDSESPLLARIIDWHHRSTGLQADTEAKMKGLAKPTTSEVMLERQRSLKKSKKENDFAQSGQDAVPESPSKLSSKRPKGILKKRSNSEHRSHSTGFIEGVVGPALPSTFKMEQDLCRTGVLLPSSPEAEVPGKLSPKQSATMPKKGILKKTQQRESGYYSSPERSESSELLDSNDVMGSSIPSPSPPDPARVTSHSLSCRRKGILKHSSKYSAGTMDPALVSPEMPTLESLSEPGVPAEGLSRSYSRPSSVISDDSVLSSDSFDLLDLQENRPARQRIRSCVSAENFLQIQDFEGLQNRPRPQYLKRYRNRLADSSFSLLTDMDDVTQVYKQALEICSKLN
Chain of RET (P07949 29-1114, species assumed): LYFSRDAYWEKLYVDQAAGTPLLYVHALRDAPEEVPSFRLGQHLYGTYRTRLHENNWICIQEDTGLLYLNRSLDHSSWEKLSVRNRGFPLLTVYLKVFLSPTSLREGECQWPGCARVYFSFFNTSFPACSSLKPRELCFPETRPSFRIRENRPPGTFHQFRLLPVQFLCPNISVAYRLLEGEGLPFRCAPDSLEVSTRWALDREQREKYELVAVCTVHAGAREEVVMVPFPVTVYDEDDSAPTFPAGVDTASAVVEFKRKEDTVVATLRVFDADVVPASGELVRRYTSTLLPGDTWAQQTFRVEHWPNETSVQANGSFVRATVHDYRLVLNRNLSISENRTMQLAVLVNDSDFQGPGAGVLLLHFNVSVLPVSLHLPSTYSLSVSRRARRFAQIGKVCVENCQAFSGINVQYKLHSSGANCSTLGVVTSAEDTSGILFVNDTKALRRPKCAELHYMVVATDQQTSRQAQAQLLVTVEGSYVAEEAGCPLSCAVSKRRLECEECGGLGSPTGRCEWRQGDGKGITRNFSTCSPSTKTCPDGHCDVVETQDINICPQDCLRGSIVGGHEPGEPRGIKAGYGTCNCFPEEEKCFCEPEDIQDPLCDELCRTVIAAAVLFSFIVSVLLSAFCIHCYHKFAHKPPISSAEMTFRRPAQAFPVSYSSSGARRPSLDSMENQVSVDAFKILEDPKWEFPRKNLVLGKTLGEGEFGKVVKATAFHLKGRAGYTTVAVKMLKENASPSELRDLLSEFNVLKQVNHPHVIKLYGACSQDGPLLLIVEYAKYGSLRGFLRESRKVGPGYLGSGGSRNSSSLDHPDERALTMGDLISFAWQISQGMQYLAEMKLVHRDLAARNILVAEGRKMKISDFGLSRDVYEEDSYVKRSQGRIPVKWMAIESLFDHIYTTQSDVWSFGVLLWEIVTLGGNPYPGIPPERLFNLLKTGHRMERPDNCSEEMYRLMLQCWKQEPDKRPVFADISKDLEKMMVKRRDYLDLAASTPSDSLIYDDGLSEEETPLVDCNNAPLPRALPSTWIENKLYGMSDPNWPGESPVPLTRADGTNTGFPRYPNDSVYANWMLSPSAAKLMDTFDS
Chain of INSRR (P14616 27-1297, species assumed): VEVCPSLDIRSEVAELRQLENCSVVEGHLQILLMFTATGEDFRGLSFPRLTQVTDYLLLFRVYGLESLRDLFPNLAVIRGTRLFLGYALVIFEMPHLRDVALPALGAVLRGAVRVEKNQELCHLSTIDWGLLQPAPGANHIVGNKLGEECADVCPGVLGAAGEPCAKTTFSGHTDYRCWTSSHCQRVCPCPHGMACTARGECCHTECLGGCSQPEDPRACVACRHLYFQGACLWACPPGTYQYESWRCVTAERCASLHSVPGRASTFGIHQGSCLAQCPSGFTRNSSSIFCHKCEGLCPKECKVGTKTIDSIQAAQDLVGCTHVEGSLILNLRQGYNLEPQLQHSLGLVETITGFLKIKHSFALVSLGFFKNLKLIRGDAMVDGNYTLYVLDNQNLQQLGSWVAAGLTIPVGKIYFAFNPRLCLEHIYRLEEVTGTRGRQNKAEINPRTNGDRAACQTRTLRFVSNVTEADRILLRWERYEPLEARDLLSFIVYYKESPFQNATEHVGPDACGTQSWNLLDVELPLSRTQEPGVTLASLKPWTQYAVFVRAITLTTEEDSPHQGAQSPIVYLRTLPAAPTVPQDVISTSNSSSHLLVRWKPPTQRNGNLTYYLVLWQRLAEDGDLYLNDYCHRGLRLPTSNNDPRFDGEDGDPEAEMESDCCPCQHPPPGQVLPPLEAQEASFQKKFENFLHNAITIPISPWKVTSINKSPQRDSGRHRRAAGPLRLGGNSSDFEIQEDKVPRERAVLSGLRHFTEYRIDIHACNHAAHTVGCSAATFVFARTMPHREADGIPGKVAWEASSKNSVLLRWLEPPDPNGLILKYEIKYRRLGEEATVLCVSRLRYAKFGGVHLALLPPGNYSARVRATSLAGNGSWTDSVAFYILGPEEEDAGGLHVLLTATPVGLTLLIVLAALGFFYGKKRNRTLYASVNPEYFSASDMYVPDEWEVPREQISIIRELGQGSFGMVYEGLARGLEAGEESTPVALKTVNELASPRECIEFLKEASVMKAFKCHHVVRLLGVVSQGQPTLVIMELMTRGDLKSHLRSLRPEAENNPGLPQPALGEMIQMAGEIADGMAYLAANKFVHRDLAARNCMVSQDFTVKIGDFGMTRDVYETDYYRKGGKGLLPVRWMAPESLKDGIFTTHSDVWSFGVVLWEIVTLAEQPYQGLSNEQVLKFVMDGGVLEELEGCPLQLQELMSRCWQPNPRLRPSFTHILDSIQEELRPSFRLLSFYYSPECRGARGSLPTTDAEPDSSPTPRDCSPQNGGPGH

IC50 (Ba/F3 ROS1 (CD74) L2086F): 6.9 ± 1.7 nM
IC50 [1]: 49.5 ± 10.2 nM
IC50 (Ba/F3 ROS1 (CD74) G2032R): 7.7 ± 2 nM
IC50 [2]: 66.2 ± 18.2 nM
IC50 [3]: 37.8 ± 4.4 nM
IC50 [4]: 1.9 ± 0.4 nM
IC50 (INSRR): 45 nM
IC50 (RET): 82 nM
IC50 [6]: 1.1 ± 0.3 nM
IC50 (NUAK1): 47 nM
IC50 [8]: 58.4 ± 11.4 nM
IC50 [9]: 0.4 ± 0.3 nM
IC50 [10]: 2.9 ± 0.5 nM
SMILES: COc1cc(N2CCC(N3CCN(CC4CCN(c5ccc6c(c5)CN(C5CCC(=O)NC5=O)C6=O)CC4)CC3)CC2)ccc1Nc1ncc(Cl)c(Nc2ccccc2P(C)(C)=O)n1 (stereo not drawn) [9o, 3-(5-(4-((4-(1-(4-((5-Chloro-4-((2-(dimethylphosphoryl)phenyl)amino)pyrimidin-2-yl)amino)-3-methoxyphenyl)piperidin-4-yl)piperazin-1-yl)methyl)piperidin-1-yl)-1-oxoisoindolin-2-yl)piperidine-2,6-dione]
Dmax (%) (ROS1) (ROS1): 99%
TGI (tumor growth inhibition) ([5]; 10 mg/kg PO qd): 62%
TGI (tumor growth inhibition) ([5]; 30 mg/kg PO qd): 164%
TGI (tumor growth inhibition) ([7]; 10 mg/kg PO qd): 33%
TGI (tumor growth inhibition) ([7]; 30 mg/kg PO qd): 78%
